Experiments:
blackgrass = experiment: Test A postemergence; format: in vivo, Alopecurus myosuroides
In short: (§1)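 Greenhouse pot test, loam/sand soil. Formulation: non-phytotoxic solvent mix plus surfactant. Pre: directed spray onto soil after sowing. Post: plants at 1–2 leaf, 2–10 cm. Rated visually vs untreated controls at ~10 d, 0 (no effect) to 100 (complete control).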

Heteranthera limosa = experiment: Test B flooded paddy test; format: in vivo; settings: Flood, 250 g ai/ha, 0 to 100 scale where 0 is no effect and 100 is complete control
In short: (§2)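 2-leaf stage plants; pots flooded to 3 cm, compound added to paddy water, depth maintained. Greenhouse 13–15 d. Visual rating vs untreated controls, 0 (no effect) to 100 (complete control); dash = no result.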

barnyardgrass [1] = experiment: Test A preemergence; format: in vivo, Echinochloa crus-galli; settings: for Plant response rating, Barnyardgrass: 0 to 100 scale where 0 is no effect and 100 is complete control
In short: as §1

giant foxtail [2] = experiment: Test A preemergence; format: in vivo, Setaria faberii; settings: for Plant response rating, Foxtail, Giant: 0 to 100 scale where 0 is no effect and 100 is complete control
In short: as §1

giant foxtail [3] = experiment: Test A postemergence; format: in vivo, Setaria faberii
In short: as §1

pigweed [4] = experiment: Test A postemergence; format: in vivo, Amaranthus retroflexus; settings: 0 to 100 scale, 0 no effect, 100 complete control
In short: as §1

corn = experiment: Test A postemergence; format: in vivo, Zea mays
In short: as §1

barnyardgrass [5] = experiment: Test A postemergence; format: in vivo, Echinochloa crus-galli
In short: as §1

wheat = experiment: Test A postemergence; format: in vivo, Triticum aestivum; settings: 0 to 100 scale, 0 no effect, 100 complete control
In short: as §1

galium = experiment: Test A postemergence; format: in vivo, Galium aparine
In short: as §1

kochia [6] = experiment: Test A postemergence; format: in vivo, Kochia scoparia
In short: as §1

pigweed [7] = experiment: Test A preemergence; format: in vivo, Amaranthus retroflexus; settings: for Plant response rating, Pigweed: 0 to 100 scale where 0 is no effect and 100 is complete control
In short: as §1

ragweed [8] = experiment: Test A preemergence; format: in vivo, Ambrosia elatior; settings: for Plant response rating, Ragweed: 0 to 100 scale where 0 is no effect and 100 is complete control
In short: as §1

kochia [9] = experiment: Test A preemergence; format: in vivo, Kochia scoparia; settings: for Plant response rating, Kochia: 0 to 100 scale where 0 is no effect and 100 is complete control
In short: as §1

barnyardgrass [10] = experiment: Test B flooded paddy test; format: in vivo, Echinochloa crus-galli; settings: Flood, 250 g ai/ha, 0 to 100 scale where 0 is no effect and 100 is complete control
In short: as §2

rice = experiment: Test B flooded paddy test; format: in vivo, Oryza sativa; settings: Flood, 250 g ai/ha, 0 to 100 scale where 0 is no effect and 100 is complete control
In short: as §2

Italian ryegrass [11] = experiment: Test A preemergence; format: in vivo, Lolium multiflorum; settings: for Plant response rating, Ryegrass, Italian: 0 to 100 scale where 0 is no effect and 100 is complete control
In short: as §1

ragweed [12] = experiment: Test A postemergence; format: in vivo, Ambrosia elatior; settings: 0 to 100 scale, 0 no effect, 100 complete control
In short: as §1

Italian ryegrass [13] = experiment: Test A postemergence; format: in vivo, Lolium multiflorum; settings: 0 to 100 scale, 0 no effect, 100 complete control
In short: as §1

sedge, umbrella = experiment: Test B flooded paddy test; format: in vivo, Cyperus difformis; settings: Flood, 250 g ai/ha, 0 to 100 scale where 0 is no effect and 100 is complete control
In short: as §2

[14] = 1000 g ai/ha, 0 to 100 scale, 0 no effect, 100 complete control
[15] = 1000 g ai/ha, 0 to 100 scale, 0 no effect, 100 complete control, approx. 10 days
[16] = 31 g ai/ha, 0 to 100 scale, 0 no effect, 100 complete control
[17] = 125 g ai/ha, 0 to 100 scale where 0 is no effect and 100 is complete control
[18] = 125 g ai/ha, 0 to 100 scale, 0 no effect, 100 complete control
[19] = 31 g ai/ha, visual, approximately 10 days

FC(F)(F)c1cnn(-c2c(Oc3ncc(Cl)cn3)cccc2-c2nnco2)c1 [Compound 298, 2-[3-[(5-chloro-2-pyrimidinyl)oxy]-2-[4-(trifluoromethyl)-1H-pyrazol-1-yl]phenyl]-1,3,4-oxadiazole]
Plant response rating, Blackgrass (blackgrass; [14]): 80 | pest or weed control at 250 g/ha (Heteranthera limosa; Heteranthera limosa, read-out: Plant response rating, Ducksalad): 0% | pest or weed control at 1000 g/ha (barnyardgrass [1]; Echinochloa crus-galli, pre-emergence, 240 h, 1000 g ai/ha, 0 to 100 scale, 0 no effect, 100 complete control, approx. 10 days, read-out: Barnyardgrass plant response rating): 100% | pest or weed control at 1000 g/ha (giant foxtail [2]; Setaria faberi, pre-emergence, 240 h, 1000 g ai/ha, 0 to 100 scale, 0 no effect, 100 complete control, approx. 10 days, read-out: Foxtail, Giant plant response rating): 100% | pest or weed control at 1000 g/ha (giant foxtail [3]; Setaria faberi, post-emergence, 240 h, 1000 g ai/ha, 0 to 100 scale, 0 no effect, 100 complete control, read-out: Plant response rating Foxtail, Giant): 90% | pest or weed control at 1000 g/ha (pigweed [4]; Amaranthus retroflexus, post-emergence, 240 h, 1000 g ai/ha, read-out: Plant response rating Pigweed): 100% | plant injury at 1000 g/ha (corn; Zea mays, post-emergence, 240 h, 1000 g ai/ha, 0 to 100 scale, 0 no effect, 100 complete control, read-out: Plant response rating Corn): 70% | pest or weed control at 1000 g/ha (barnyardgrass [5]; Echinochloa crus-galli, post-emergence, 240 h, 1000 g ai/ha, 0 to 100 scale, 0 no effect, 100 complete control, read-out: Plant response rating Barnyardgrass): 90% | plant injury at 1000 g/ha (wheat; Triticum aestivum, post-emergence, 240 h, 1000 g ai/ha, read-out: Plant response rating Wheat): 40% | Plant response rating, Galium (galium; [14]): 80 | Plant response rating, Kochia (kochia [6]; [14]): 100 | pest or weed control at 1000 g/ha (pigweed [7]; Amaranthus retroflexus, pre-emergence, 240 h, 1000 g ai/ha, 0 to 100 scale, 0 no effect, 100 complete control, approx. 10 days, read-out: Pigweed plant response rating): 100% | Ragweed plant response rating (ragweed [8]; [15]): 90 | Kochia plant response rating (kochia [9]; [15]): 90 | pest or weed control at 250 g/ha (barnyardgrass [10]; Echinochloa crus-galli, read-out: Plant response rating, Barnyardgrass): 0% | plant injury at 250 g/ha (rice; Oryza sativa, read-out: Plant response rating, Rice): 0% | Ryegrass, Italian plant response rating (Italian ryegrass [11]; [15]): 50 | Plant response rating, Ragweed (ragweed [12]; 1000 g ai/ha): 90 | Plant response rating, Ryegrass, Italian (Italian ryegrass [13]; 1000 g ai/ha): 70 | pest or weed control at 250 g/ha (sedge, umbrella; Cyperus difformis, read-out: Plant response rating, Sedge, Umbrella): 30%

Fc1cnc(Oc2cccc(Cl)c2-n2cc(OCC(F)(F)F)cn2)nc1 [Compound 109]
Plant response rating, Blackgrass (blackgrass; [16]): 20 | Plant response rating, Blackgrass (blackgrass; [17]): 70 | Plant response rating, Ducksalad (Heteranthera limosa): 80 | Barnyardgrass plant response rating (0 to 100 scale) (barnyardgrass [1]; 31 g ai/ha): 20 | Plant response rating, Barnyardgrass (barnyardgrass [1]; 125 g ai/ha): 60 | Foxtail, Giant plant response rating (0 to 100 scale) (giant foxtail [2]; 31 g ai/ha): 70 | Plant response rating, Foxtail, Giant (giant foxtail [2]; 125 g ai/ha): 90 | Plant response rating, Foxtail, Giant (giant foxtail [3]; [16]): 10 | Plant response rating, Foxtail, Giant (giant foxtail [3]; [17]): 70 | Plant response rating, Pigweed (pigweed [4]; 31 g ai/ha): 70 | Plant response rating, Corn (corn; [16]): 10 | Plant response rating, Corn (corn; [17]): 40 | Plant response rating, Barnyardgrass (barnyardgrass [5]; [16]): 10 | Plant response rating, Barnyardgrass (barnyardgrass [5]; [17]): 60 | Plant response rating, Wheat (wheat; 31 g ai/ha): 0 | Plant response rating, Galium (galium; [16]): 50 | Plant response rating, Galium (galium; [17]): 90 | Plant response rating, Kochia (kochia [6]; [16]): 40 | Plant response rating, Kochia (kochia [6]; [17]): 60 | Pigweed plant response rating (0 to 100 scale) (pigweed [7]; 31 g ai/ha): 100 | Plant response rating, Pigweed (pigweed [7]; 125 g ai/ha): 100 | Ragweed plant response rating (0 to 100 scale) (ragweed [8]; 31 g ai/ha): 0 | Plant response rating, Ragweed (ragweed [8]; 125 g ai/ha): 10 | Kochia plant response rating (0 to 100 scale) (kochia [9]; 31 g ai/ha): 20 | Plant response rating, Kochia (kochia [9]; 125 g ai/ha): 60 | Plant response rating, Barnyardgrass (barnyardgrass [10]): 0 | Plant response rating, Rice (rice): 0 | Ryegrass, Italian plant response rating (0 to 100 scale) (Italian ryegrass [11]; 31 g ai/ha): 0 | Plant response rating, Ryegrass, Italian (Italian ryegrass [11]; 125 g ai/ha): 0 | Plant response rating, Ragweed (ragweed [12]; 31 g ai/ha): 10 | Plant response rating, Ryegrass, Italian (Italian ryegrass [13]; 31 g ai/ha): 0 | Plant response rating, Sedge, Umbrella (sedge, umbrella): 85

N#Cc1cccc(Oc2ncc(Cl)cn2)c1-n1ccnc1 [Compound 261]
Plant response rating, Blackgrass (blackgrass; [16]): 0 | Plant response rating, Blackgrass (blackgrass; [18]): 0 | Plant response rating, Ducksalad (Heteranthera limosa): 0 | Plant response rating, Barnyardgrass (barnyardgrass [1]; [19]): 0 | Barnyardgrass plant response rating (0 to 100 scale, 0 is no effect, 100 is complete control) (barnyardgrass [1]; 125 g ai/ha): 0 | Plant response rating, Foxtail, Giant (giant foxtail [2]; [19]): 0 | Foxtail, Giant plant response rating (0 to 100 scale) (giant foxtail [2]; 125 g ai/ha): 0 | Plant response rating, Foxtail, Giant (giant foxtail [3]; [16]): 0 | Plant response rating, Foxtail, Giant (giant foxtail [3]; [18]): 10 | Plant response rating, Pigweed (pigweed [4]; 31 g ai/ha): 30 | Plant response rating, Pigweed (pigweed [4]; 125 g ai/ha): 60 | Plant response rating, Corn (corn; [16]): 0 | Plant response rating, Corn (corn; [18]): 0 | Plant response rating, Barnyardgrass (barnyardgrass [5]; [16]): 0 | Plant response rating, Barnyardgrass (barnyardgrass [5]; [18]): 0 | Plant response rating, Wheat (wheat; 31 g ai/ha): 0 | Plant response rating, Wheat (wheat; 125 g ai/ha): 0 | Plant response rating, Galium (galium; [16]): 30 | Plant response rating, Galium (galium; [18]): 50 | Plant response rating, Kochia (kochia [6]; [16]): 50 | Plant response rating, Kochia (kochia [6]; [18]): 70 | Plant response rating, Pigweed (pigweed [7]; [19]): 0 | Pigweed plant response rating (0 to 100 scale) (pigweed [7]; 125 g ai/ha): 0 | Plant response rating, Ragweed (ragweed [8]; [19]): 0 | Ragweed plant response rating (0 to 100 scale) (ragweed [8]; 125 g ai/ha): 0 | Plant response rating, Kochia (kochia [9]; [19]): 0 | Kochia plant response rating (0 to 100 scale) (kochia [9]; 125 g ai/ha): 0 | Plant response rating, Barnyardgrass (barnyardgrass [10]): 0 | Plant response rating, Rice (rice): 0 | Plant response rating, Ryegrass, Italian (Italian ryegrass [11]; [19]): 0 | Ryegrass, Italian plant response rating (0 to 100 scale) (Italian ryegrass [11]; 125 g ai/ha): 0 | Plant response rating, Ragweed (ragweed [12]; 31 g ai/ha): 20 | Plant response rating, Ragweed (ragweed [12]; 125 g ai/ha): 30 | Plant response rating, Ryegrass, Italian (Italian ryegrass [13]; 31 g ai/ha): 0 | Plant response rating, Ryegrass, Italian (Italian ryegrass [13]; 125 g ai/ha): 0 | Plant response rating, Sedge, Umbrella (sedge, umbrella): 0
